# From US20260027244A1, “SILICON-BASED FLUORIDE ACCEPTOR GROUPS FOR RADIOPHARMACEUTICALS” (Technische Universität München, priority 2022, published 2026)
# Read-outs that look alike come from different tables or passages of the source.
# Tests used:
# [1] = target: T1, human serum albumin (HSA) (Homo sapiens, UniProt P02768); test: HSA binding of reference substances from literature (HPAC calibration); settings: logarithmic value of HSA binding values
# Description: HSA binding of the PSMA-addressing ligands by HPAC was determined according to a previously published procedure via HPLC. […] Mobile phase A was a freshly prepared 50 mM aqueous solution of NH4OAc (pH 6.9) and mobile phase B was isopropanol (HPLC grade, VWR). The applied gradient for all experiments was 100% A (0 to 3 min), followed by 80% A (3 to 40 min). […] (12,13). All substances were dissolved in a 1:1 mixture (v/v) of isopropanol and a 50 mM aqueous solution of NH4OAc (pH 6.9) with a final concentration of 0.5 mg/mL. Non-linear regression was established with the OriginPro 2016G software (Northampton, United States).
# [2] = target: T1, human serum albumin (HSA); settings: HSA binding values obtained from literature; cited from earlier work
# [3] = n-octanol-water partition coefficient (log D7.4); assay type: physicochemical
# Description: In the development process of alternative SiFA-analogs, the influence of the substitution pattern at the aromatic moiety on lipophilicity is of particular importance. […] Assuming to observe a better differentiation in properties of the various prosthetic groups, investigations were conducted on small model peptides. Corresponding log D7.4-values (n≥8) are depicted in FIG. 3.
# Approximately 1 MBq of the [^177Lu]Lu-labeled tracer or 0.5 MBq of the [^18F]F-labeled tracer was dissolved in 1 mL of n-octanol/PBS (v/v=1:1) in a reaction vial (1.5 mL). After vigorous mixing of the suspension for 3 min at rt, the vial was centrifuged at 15000 g for 5 min (Biofuge 15, Heraus Sepatech, Osterode, Germany) and 100 μL aliquots of both layers were measured in a γ-counter. The experiment was repeated (n≥6).
# PSMA = target: T2, PSMA (Homo sapiens, UniProt Q04609); test: PSMA affinity (IC50) on LNCaP cells, competition with [125I]I-BA-KuE; assay type: binding
# T2 construct: host or cells: LNCaP cells
# Description: A mixture of trypsin and EDTA (0.05%, 0.02%) in PBS (Biochrom GmbH, Berlin, Germany) was used to harvest cells. Cells were counted with a Neubauer hemocytometer (Paul Marienfeld, Lauda-Königshofen, Germany).
# In the case of metal-complexed ligands, the crude reaction mixture was diluted analogously, without further purification. Cells were harvested 24±2 hours prior to the experiment and seeded in 24-well plates (1.5×10^5 cells in 1 mL/well). After removal of the culture medium, the cells were carefully washed with 500 μL of HBSS (1% BSA) and left 15 min on ice for equilibration in 200 μL HBSS (1% BSA). […] For each concentration, the experiment was performed in triplicate. After incubation on ice for 60 min, the experiment was terminated by removal of the medium and consecutive rinsing with 200 μL of HBSS (1% BSA). The media of both steps were combined in one fraction and represent the amount of free radioligand. Afterwards, the cells were lysed with 250 μL of NaOH (1 M in H2O) for at least 15 min. After a washing step with NaOH (250 μL, 1 M in H2O), both fractions, representing the amount of bound ligand, were united. Quantification of all collected fractions was accomplished in a γ-counter. IC50 values were calculated using GraphPad PRISM software (GraphPad Software Inc., La Jolla, United States). The whole PSMA-affinity determination was carried out at least three times per ligand.
# [4] = target: T1, human serum albumin (HSA); test: Human serum albumin (HSA) binding by high performance affinity chromatography (HPAC); assay type: in vitro ADME; settings: radiohybrid SSTR ligands, Table 4
# Description: Investigations about the binding strength of the SiFA-MPs to human serum albumin (HSA) were conducted using high performance affinity chromatography (HPAC). The corresponding gold-standards ((4-SiFA)Bz-MPs) display—as expected from published as well as internal data—a quite strong HSA binding. This is associated with a comparably slow and unfavored blood clearance in vivo.
# [5] = Biodistribution in LNCaP tumor-bearing male CB17-SCID mice; assay type: in vivo; settings: 1 h p.i.
# Description: Data expressed as percentage of the injected dose per gram (% ID/g), mean±standard deviation. Data of [18F]F, ^natGa-rhPSMA-7.3 were previously published by our group. (2)
# Mice were used for experiments when tumors had grown to a diameter of 2-6 mm (4-20 weeks after inoculation).
# Results are all decay-corrected and given in % injected dose per gram of tissue (% ID/g).
# [6] = 1 h p.i.; previously published data; cited from earlier work
# T2 sequence (Q04609 whole entry): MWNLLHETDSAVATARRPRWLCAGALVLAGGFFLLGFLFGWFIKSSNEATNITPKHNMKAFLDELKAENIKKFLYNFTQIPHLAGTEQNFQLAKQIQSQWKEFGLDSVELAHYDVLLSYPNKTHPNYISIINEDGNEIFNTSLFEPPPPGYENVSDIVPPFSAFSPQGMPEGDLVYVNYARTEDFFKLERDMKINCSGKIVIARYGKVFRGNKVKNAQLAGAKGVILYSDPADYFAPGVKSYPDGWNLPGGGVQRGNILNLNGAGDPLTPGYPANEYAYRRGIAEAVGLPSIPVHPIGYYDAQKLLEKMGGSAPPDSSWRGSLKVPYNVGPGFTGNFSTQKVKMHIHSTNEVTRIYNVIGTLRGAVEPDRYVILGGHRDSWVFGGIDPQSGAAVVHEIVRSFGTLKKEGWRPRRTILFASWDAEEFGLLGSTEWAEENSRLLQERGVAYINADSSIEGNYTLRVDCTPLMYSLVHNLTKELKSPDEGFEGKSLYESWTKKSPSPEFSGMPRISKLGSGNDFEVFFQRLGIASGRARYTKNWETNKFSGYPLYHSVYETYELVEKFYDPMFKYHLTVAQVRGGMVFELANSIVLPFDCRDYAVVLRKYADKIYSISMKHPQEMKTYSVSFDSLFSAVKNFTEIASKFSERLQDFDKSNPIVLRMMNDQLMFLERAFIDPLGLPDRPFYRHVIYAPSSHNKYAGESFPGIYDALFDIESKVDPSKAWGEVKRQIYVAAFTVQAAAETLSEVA
# T1 sequence (P02768 25-609): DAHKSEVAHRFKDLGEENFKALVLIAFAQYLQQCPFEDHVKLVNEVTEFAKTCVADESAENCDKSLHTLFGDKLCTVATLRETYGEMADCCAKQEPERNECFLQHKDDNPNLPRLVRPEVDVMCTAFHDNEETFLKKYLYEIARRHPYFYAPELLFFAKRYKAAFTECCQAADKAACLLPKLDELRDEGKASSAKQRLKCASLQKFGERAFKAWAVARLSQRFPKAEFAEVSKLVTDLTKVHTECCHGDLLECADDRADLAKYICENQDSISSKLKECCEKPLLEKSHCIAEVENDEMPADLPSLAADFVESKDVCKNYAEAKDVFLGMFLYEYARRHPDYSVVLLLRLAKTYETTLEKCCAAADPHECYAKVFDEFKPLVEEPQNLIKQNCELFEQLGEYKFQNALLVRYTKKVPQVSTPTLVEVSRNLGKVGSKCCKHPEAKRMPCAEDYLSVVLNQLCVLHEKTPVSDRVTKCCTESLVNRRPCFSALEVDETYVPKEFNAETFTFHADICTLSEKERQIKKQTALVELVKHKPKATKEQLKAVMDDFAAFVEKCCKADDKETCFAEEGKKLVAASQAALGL
smiles,measurement,setting,value
Nc1ccccc1 [Aniline],Log K HSA,[1],−0.79
same,lit. HSA [%],[2],14.06%
O=C(O)c1ccccc1 [Benzoic Acid],lit. HSA [%],[2],34.27%
CC(C)(C)[Si](F)(c1ccc(C(=O)NCCCC[C@H](NC(=O)N[C@@H](CCC(=O)O)C(=O)O)C(=O)O)cc1)C(C)(C)C [Entry 1],logD7.4 (n = 6),[3]; pH 7.4,−1.95 ± 0.09
same,IC50,PSMA,327 ± 73 nM
"C[C@@H](O)[C@H](NC(=O)[C@@H]1CSSC[C@H](NC(=O)[C@@H](Cc2ccccc2)NC(=O)CN2CCN(CC(=O)O)CCN(CC(=O)NCCNC(=O)c3cc(C(=O)O)cc([Si](F)(C(C)(C)C)C(C)(C)C)c3)CCN(CC(=O)O)CC2)C(=O)N[C@@H](Cc2ccc(O)cc2)C(=O)N[C@H](Cc2c[nH]c3ccccc23)C(=O)N[C@@H](CCCCN)C(=O)N[C@@H]([C@@H](C)O)C(=O)N1)C(=O)O [Entry 4, ^natGa-(5-SiFA)Ip-EDA-DOTATATE, metal not drawn]",logD7.4 (n = 6),"[3]; 18F-labeled compound, SSTR ligands",−0.67 ± 0.03
same,HSA binding (HPAC) [%],[4],97.4%
COc1ccc(Cl)cc1C(=O)NCCc1ccc(S(=O)(=O)NC(=O)NC2CCCCC2)cc1 [Glibenclamide],Log K HSA,[1],1.69
same,lit. HSA [%],[2],99.00%
CCCC[C@@H](C(=O)N[C@@H](CC(=O)O)C(=O)N[C@@H](Cc1cccc2ccccc12)C(N)=O)N(C)C(=O)[C@H](Cc1c[nH]c2ccccc12)NC(=O)CNC(=O)[C@H](Cc1ccc(O)cc1)NC(=O)[C@H](C)NC(=O)[C@@H](CCC(=O)O)NC(=O)CN1CCN(CC(=O)O)CCN(CC(=O)O)CCN(CC(=O)O)CC1 [Lu-DOTA-MGS5],logD,[3]; pH 7.4,-2.25
CC(C)(C)[Si](F)(c1cccc(C(=O)NCCCC[C@H](NC(=O)N[C@@H](CCC(=O)O)C(=O)O)C(=O)O)c1)C(C)(C)C [PSMA-2],increase in affinity,PSMA; shift of silyl group from para (PSMA-1) to meta position,more than 20 fold
CC(C)(C)[Si](F)(c1cc(C(=O)O)cc(C(=O)NCCCC[C@H](NC(=O)N[C@@H](CCC(=O)O)C(=O)O)C(=O)O)c1)C(C)(C)C [PSMA-3],"further improvement of affinity, factor","PSMA; attaching a carboxylic acid, compared to PSMA-2",two
same,accumulation in intestine,[5],17.7±1.6 % ID/g
same,accumulation in liver,[5],7.2±4.8 % ID/g
same,blood value,[5],0.55 % ID/g
same,bone uptake,[5],1.16±0.22 % ID/g
same,kidney value,[5],67.1±13.9 % ID/g
Oc1ccccc1 [Phenol],Log K HSA,[1],−0.59
same,lit. HSA [%],[2],20.69%
CCCN(CCC)S(=O)(=O)c1ccc(C(=O)O)cc1 [Probenecid],lit. HSA [%],[2],95.00%
"CC(C)(C)[Si](F)(c1ccc(C(=O)NC[C@@H](NC(=O)CC[C@@H](C(=O)O)N2CCN(CC(=O)O)CCN(CC(=O)O)CCN(CC(=O)O)CC2)C(=O)N[C@H](CCCCC(=O)NCCC(=O)NCCC[C@@H](NC(=O)CC[C@H](NC(=O)N[C@@H](CCC(=O)O)C(=O)O)C(=O)O)C(=O)O)C(=O)O)cc1)C(C)(C)C [[^18F]F, ^natGa-rhPSMA-7.3, metal not drawn]",blood value,[6],0.96 % ID/g
same,bone uptake,[6],0.38±0.32 % ID/g
